Measurements taken from the supplement of paper PMC10307832.

Legend:
Experiment in all cases: relative viability (nuclei count vs DMSO), 5 days (fraction); higher = more cells survive
[1] = compound: C[C@]12O[C@H](C[C@]1(O)CO)n1c3ccccc3c3c4c(c5c6ccccc6n2c5c31)CNC4=O [Lestaurtinib] + CC(=O)c1c(C)c2cnc(Nc3ccc(N4CCNCC4)cn3)nc2n(C2CCCC2)c1=O [Palbociclib] (partner 0.5 µM)
How it was run: (§1)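 After 5 days of treatment, lung cancer cells in 1536-well plates were fixed and stained in a single step (final 0.05% Triton X-100, 1% formaldehyde, 1 ug/ml Hoechst) and their nuclei counted on 4× images. Treatment had been applied by pin tool the day after seeding as one drug alone or as a fixed anchor-drug dose with five library-drug doses (not always all listed) in √10 steps. Relative viability is the nuclei count of treated wells divided by that of vehicle wells, and values are medians of duplicate plates.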

TPCA-1 + Linsitinib = compound: C1=CC(=CC=C1C2=CC(=C(S2)NC(=O)N)C(=O)N)F [TPCA-1] + C[C@]1(O)C[C@@H](c2nc(-c3ccc4ccc(-c5ccccc5)nc4c3)c3c(N)nccn32)C1 [Linsitinib] (partner 1 µM)
How it was run: as §1

TPCA-1 + Pictilisib = compound: C1=CC(=CC=C1C2=CC(=C(S2)NC(=O)N)C(=O)N)F [TPCA-1] + CS(=O)(=O)N1CCN(Cc2cc3nc(-c4cccc5[nH]ncc45)nc(N4CCOCC4)c3s2)CC1 [Pictilisib] (partner 1 µM)
How it was run: as §1

[2] = compound: C[C@]12O[C@H](C[C@]1(O)CO)n1c3ccccc3c3c4c(c5c6ccccc6n2c5c31)CNC4=O [Lestaurtinib] + Nc1nc2[nH]cc(CCc3ccc(C(=O)N[C@@H](CCC(=O)O)C(=O)O)cc3)c2c(=O)[nH]1 [Pemetrexed] (partner 0.2 µM)
How it was run: as §1

Cell Line	relative viability ([1]; first compound 0.005 µM)	relative viability ([1]; first compound 0.01581 µM)	relative viability ([1]; first compound 0.05 µM)	relative viability ([1]; first compound 0.1581 µM)	relative viability ([1]; first compound 0.5 µM)	relative viability (TPCA-1 + Linsitinib; first compound 0.04 µM)	relative viability (TPCA-1 + Linsitinib; first compound 0.1265 µM)	relative viability (TPCA-1 + Linsitinib; first compound 0.4 µM)	relative viability (TPCA-1 + Linsitinib; first compound 1.265 µM)	relative viability (TPCA-1 + Linsitinib; first compound 4 µM)	relative viability (TPCA-1 + Pictilisib; first compound 0.04 µM)	relative viability (TPCA-1 + Pictilisib; first compound 0.1265 µM)	relative viability (TPCA-1 + Pictilisib; first compound 0.4 µM)	relative viability (TPCA-1 + Pictilisib; first compound 1.265 µM)	relative viability (TPCA-1 + Pictilisib; first compound 4 µM)	relative viability ([2]; first compound 0.005 µM)	relative viability ([2]; first compound 0.01581 µM)	relative viability ([2]; first compound 0.05 µM)	relative viability ([2]; first compound 0.1581 µM)	relative viability ([2]; first compound 0.5 µM)
HCC-366	0.371	0.424	0.471	0.391	0.172	0.72	0.568	0.807	0.458	0.427	0.182	0.13	0.177	0.117	0.124	0.158	0.168	0.157	0.163	0.104
NCI-H2347	0.433	0.438	0.535	0.48	0.501	1.14	1.02	0.899	0.931	0.903	0.588	0.568	0.901	0.806	0.31	0.443	0.43	0.432	0.44	0.404
LXF-289	0.624	0.633	0.443	0.49	0.234	0.94	0.969	0.932	0.962	0.793	0.836	0.698	0.797	0.735	0.499	0.872	0.931	0.631	0.771	0.21
NCI-H1793	0.333	0.36	0.324	0.335	0.26	1.05	0.674	0.934	0.683	0.727	0.292	0.381	0.454	0.245	0.28	0.809	0.911	0.544	0.692	0.541
LU99A	0.371	0.392	0.285	0.271	0.185	0.486	0.45	0.513	0.341	0.306	0.299	0.29	0.317	0.303	0.25	0.152	0.153	0.217	0.14	0.128
PC-14	0.509	0.594	0.356	0.415	0.115	0.939	0.978	0.926	0.966	0.692	0.847	0.605	0.526	0.499	0.322	0.153	0.131	0.154	0.154	0.0792
NCI-H2085	0.445	0.489	0.471	0.463	0.475	0.901	0.859	1	0.912	0.926	0.504	0.385	0.52	0.331	0.418	0.861	0.877	0.915	0.858	0.78
HCC-78	0.453	0.545	0.53	0.557	0.427	0.555	0.429	0.506	0.413	0.399	0.242	0.194	0.21	0.203	0.103	0.9	0.918	0.851	1	0.903
NCI-H1395	0.646	0.617	0.547	0.573	0.477	1.55	0.954	1.07	0.959	0.884	0.694	0.66	0.68	0.505	0.607	0.788	1.03	0.559	0.775	0.379
NCI-H2126	0.339	0.372	0.388	0.357	0.339	0.752	0.657	0.709	0.724	0.595	0.507	0.435	0.506	0.505	0.309	0.757	0.685	0.66	0.666	0.476
H3255	0.301	0.349	0.324	0.337	0.249	1.06	0.826	0.95	0.866	0.708	0.461	0.404	0.509	0.399	0.333	0.578	0.623	0.493	0.563	0.428
HCC-15	0.751	0.779	0.68	0.687	0.187	0.951	0.886	0.82	0.895	0.802	0.901	0.559	0.766	0.864	0.275	0.244	0.227	0.229	0.195	0.138
NCI-H661	0.423	0.413	0.445	0.467	0.317	0.524	0.487	0.706	0.534	0.411	0.467	0.325	0.452	0.347	0.321	0.972	1.03	0.836	0.702	0.523
NCI-H2009	0.221	0.226	0.183	0.194	0.133	1.25	1.18	1.11	1.19	1.06	0.974	0.741	0.896	0.272	0.318	1.07	1.06	0.998	0.934	0.835
HCC-44	0.958	1	1.04	1.1	0.732	0.608	0.63	0.705	0.656	0.666	0.684	0.571	0.619	0.792	0.508	0.635	0.685	0.491	0.648	0.377
COR-L23	0.337	0.319	0.223	0.248	0.11	1.01	0.771	0.975	0.821	0.565	0.964	0.671	0.829	0.716	0.438	0.209	0.214	0.195	0.194	0.202
EMC-BAC-2	0.505	0.51	0.456	0.353	0.305	0.848	0.739	0.822	0.837	0.66	0.59	0.475	0.55	0.318	0.406	0.452	0.429	0.488	0.352	0.308
LCLC-103H	0.524	0.506	0.497	0.474	0.51	1.24	0.99	1.08	1.12	1.07	0.659	0.593	0.553	0.587	0.656	0.418	0.484	0.469	0.472	0.412
LK-2	0.705	0.833	0.756	0.53	0.307	0.349	0.332	0.507	0.52	0.196	0.721	0.349	0.615	0.662	0.442	0.302	0.444	0.255	0.302	0.139
SW 1573	0.373	0.385	0.298	0.306	0.113	1.03	0.881	0.807	0.802	0.643	0.54	0.419	0.506	0.505	0.495	1.03	0.86	0.666	0.303	0.119
NCI-H2405	0.518	0.546	0.492	0.515	0.275	1.05	0.806	0.988	–	0.914	0.487	0.353	0.493	–	0.364	1.01	1.25	1.03	0.887	0.374
NCI-H2087	0.167	0.252	0.167	0.17	0.207	0.989	0.938	1.03	0.836	0.553	1.23	0.785	0.823	0.626	0.203	0.708	0.688	0.675	0.632	0.332
NCI-H460	0.151	0.231	0.112	0.116	0.116	0.946	0.737	0.735	0.339	0.286	0.421	0.246	0.332	0.339	0.216	0.0559	0.0645	0.0633	0.0509	0.0531
LOU-NH91	0.567	0.524	0.586	0.558	0.522	1.02	0.841	1	0.993	0.859	0.527	0.438	0.563	0.507	0.469	0.413	0.509	0.448	0.583	0.338
NCI-H1651	0.536	0.594	0.551	0.569	0.497	1.13	0.891	0.985	0.947	0.974	0.637	0.487	0.561	0.657	0.436	0.534	0.722	0.571	0.615	0.388
NCI-H441	0.192	0.238	0.225	0.199	0.207	0.669	0.287	0.569	0.328	0.188	0.565	0.377	0.4	0.216	0.195	0.272	0.258	0.238	0.277	0.285
